Molecular target: T1, Est1E (uncultured bacterium, UniProt A0A345Z1H0)
T1 construct: 3 extra residues kept; no His tag; 29 kDa theoretical; purified by ion exchange and gel filtration
T1 sequence (A0A345Z1H0 1-248): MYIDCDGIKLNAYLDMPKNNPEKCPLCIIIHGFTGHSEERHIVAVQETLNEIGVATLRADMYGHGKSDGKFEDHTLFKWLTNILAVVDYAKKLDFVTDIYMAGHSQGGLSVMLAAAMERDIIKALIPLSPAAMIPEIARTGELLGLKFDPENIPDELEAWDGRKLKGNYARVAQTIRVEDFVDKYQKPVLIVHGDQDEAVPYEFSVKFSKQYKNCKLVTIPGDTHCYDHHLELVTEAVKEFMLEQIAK
Assay: absorbance at […] nm of released 2-chloro-4-nitrophenol
Assay type: biochemical
Conditions: about […] substrate in PBST pH […] °C, […] min (assay as described for culture supernatant; also run on purified enzyme)

Structure (SMILES): COc1cc(/C=C/C(=O)Oc2ccc([N+](=O)[O-])cc2Cl)ccc1O [CNPF, 2-chloro-4-nitrophenyl ferulate]
- absorbance at 410 nm of released 2-chloro-4-nitrophenol: The activity of Est1E in the supernatant was measured by means of 2-chloro-4-nitrophenyl ferulate (CNPF)

Source: paper PMC6116501, “Improved secretory expression of lignocellulolytic enzymes in Kluyveromyces marxianus by promoter and signal sequence engineering” (Biotechnology for Biofuels, 2018)
